Consider 58 molecules from patent US6525059B1, “Substituted pyrazoles as p38 kinase inhibitors” (G. D. Searle & Company, priority 1998, dated 2003).

The target of one assay is T1, human p38 kinase alpha (Homo sapiens, UniProt Q16539).
T1 construct: The coding region of the human p38a cDNA was obtained by PCR-amplification from RNA isolated from the human monocyte cell line THP.1; GST (N); made in house; host or cells: E. coli DH10B
T1 sequence (Q16539 whole entry): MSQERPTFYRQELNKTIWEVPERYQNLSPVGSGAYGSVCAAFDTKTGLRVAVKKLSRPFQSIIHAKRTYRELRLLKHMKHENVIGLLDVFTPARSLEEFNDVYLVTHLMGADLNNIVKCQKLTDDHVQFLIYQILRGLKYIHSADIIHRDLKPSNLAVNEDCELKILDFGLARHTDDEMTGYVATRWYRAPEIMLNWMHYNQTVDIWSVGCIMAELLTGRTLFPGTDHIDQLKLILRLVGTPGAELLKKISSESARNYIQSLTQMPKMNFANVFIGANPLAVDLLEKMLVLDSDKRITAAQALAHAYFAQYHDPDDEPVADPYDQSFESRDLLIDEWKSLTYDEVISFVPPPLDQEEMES
As to the kind of experiment: p38 kinase in vitro assay, phosphorylation of biotinylated PHAS-I with gamma 32P-ATP. The assay is classed as biochemical. The following applies: @ 1.0 uM. As to the method:
The ability of compounds to inhibit human p38 kinase alpha was evaluated using two in vitro assay methods. In the first method activated human p38 kinase alpha phosphorylates a biotinylated substrate, PHAS-I (phosphorylated heat and acid stable protein-insulin inducible), in the presence of gamma ^32P-ATP (^32P-ATP). PHAS-I was biotinylated prior to the assay and provides a means of capturing the substrate which is phosphorylated during the assay. p38 Kinase was activated by MKK6. Compounds were tested in 10 fold serial dilutions over the range of 100 μM to 0.001 μM using 1% DMSO. Each concentration of inhibitor was tested in triplicate.
All reactions were carried out in 96 well polypropylene plates. Each reaction well contained 25 mM HEPES pH 7.5, 10 mM magnesium acetate and 50 μM unlabeled ATP. […] The reaction proceeded either for one hour or overnight at 30° C.
Following incubation, 20 μl of reaction mixture was transferred to a high capacity streptavidin coated filter plate (SAM-streptavidin-matrix, Promega) prewetted with phosphate buffered saline. […] Filter plates were air dried and 20 μl of scintillant was added. The plates were sealed and counted.
As for `N#Cc1ccc(C(=O)NCc2[nH]nc(-c3ccc(F)cc3)c2-c2ccncc2)cc1` [Example B-0001], the “P38 alpha kinase % inhib @ conc.” value is on record as 53.0% @ 1.0 uM. Regarding `CCC(C(=O)NCc1[nH]nc(-c2ccc(F)cc2)c1-c1ccncc1)c1ccccc1` (stereo not shown) [Example B-0048], the “P38 alpha kinase % inhib @ conc.” value was determined as 94.0% @ 1.0 uM.

Consider `O=C(NCc1[nH]nc(-c2ccc(F)cc2)c1-c1ccncc1)C1CCCN1C(=O)C(F)(F)F` (stereo not shown) [Example B-0094], for which the “P38 alpha kinase % inhib @ conc.” value was determined as 96% @ 1.0 uM.

`COC(=O)C(=O)NCc1[nH]nc(-c2ccc(F)cc2)c1-c1ccncc1` [Example B-0025]: the “P38 alpha kinase % inhib @ conc.” value was determined as 89.0% @ 1.0 uM.

Staying with this assay, now noted: @ 1.0 uM; read-out: P38 alpha kinase % inhib @ conc.
With `O=C(NCc1[nH]nc(-c2ccc(F)cc2)c1-c1ccncc1)c1cc(F)ccc1F` [Example B-0095], the inhibition at 1 µM was determined as 98%. As to `O=C(NCc1[nH]nc(-c2ccc(F)cc2)c1-c1ccncc1)c1ccc(F)cc1C(F)(F)F` [Example B-0062], the inhibition at 1 µM was determined as 94%. The same measure, in the same setting: the value for `O=S(=O)(NCc1[nH]nc(-c2ccc(F)cc2)c1-c1ccncc1)c1ccc(Cl)s1` [Example B-0144] was 86%; that for `COc1cccc(OC)c1C(=O)NCc1[nH]nc(-c2ccc(F)cc2)c1-c1ccncc1` [Example B-0070] was 92%; that for `CC(C)[C@H]1CC[C@@H](C)C[C@@H]1OCC(=O)NCc1[nH]nc(-c2ccc(F)cc2)c1-c1ccncc1` [Example B-0084] was 56%.

For the molecule `C[C@@H](NC(=O)NCc1[nH]nc(-c2ccc(F)cc2)c1-c1ccncc1)c1ccccc1` [Example B-0176], the inhibition at 1 µM amounted to 50%.

Take `O=S(=O)(NCc1[nH]nc(-c2ccc(F)cc2)c1-c1ccncc1)c1ccc(Cl)cc1Cl` [Example B-0126]: the inhibition at 1 µM came out at 66%.

As for `O=C(NCc1[nH]nc(-c2ccc(F)cc2)c1-c1ccncc1)c1cccnc1Cl` [Example B-0053], the inhibition at 1 µM stood at 95%. Same read-out and setting: then `O=C(NCc1[nH]nc(-c2ccc(F)cc2)c1-c1ccncc1)c1ccc(C(F)(F)F)cc1F` [Example B-0061], with 62%; and `COc1cccc(C(=O)NCc2[nH]nc(-c3ccc(F)cc3)c2-c2ccncc2)c1` [Example B-0075], with 91%; and `O=C(OCc1ccccc1C(=O)NCc1[nH]nc(-c2ccc(F)cc2)c1-c1ccncc1)c1ccccc1` [Example B-0092], with 97%.

On to `N#Cc1ccccc1S(=O)(=O)NCc1[nH]nc(-c2ccc(F)cc2)c1-c1ccncc1` [Example B-0127], for which the inhibition at 1 µM worked out at 82%.

Take `O=C(NCc1[nH]nc(-c2ccc(F)cc2)c1-c1ccncc1)c1ccccc1` [Example B-0063]: the inhibition at 1 µM is 96%.

The assay is the same for the next values; noted with them: @ 10.0 uM; read-out: P38 alpha kinase % inhib @ conc.
Consider `COc1ccccc1NC(=O)NCc1[nH]nc(-c2ccc(F)cc2)c1-c1ccncc1` [Example B-0166], for which the inhibition at 10 µM worked out at 45%. For the molecule `CC(C)c1ccccc1NC(=O)NCc1[nH]nc(-c2ccc(F)cc2)c1-c1ccncc1` [Example B-0179], the inhibition at 10 µM is 27%. Still for that read-out and setting: the value for `CC(=O)Nc1nc(C)c(S(=O)(=O)NCc2[nH]nc(-c3ccc(F)cc3)c2-c2ccncc2)s1` [Example B-0097] was 72%; that for `O=C(NCc1[nH]nc(-c2ccc(F)cc2)c1-c1ccncc1)Nc1ccc(Cl)c(Cl)c1` [Example B-0173] was 33%; that for `COC(=O)c1ccccc1NC(=O)NCc1[nH]nc(-c2ccc(F)cc2)c1-c1ccncc1` [Example B-0158] was 58%. In the case of `CCOC(=O)C(NC(=O)NCc1[nH]nc(-c2ccc(F)cc2)c1-c1ccncc1)C(C)C` (stereo not shown) [Example B-0188], the inhibition at 10 µM worked out at 70%.

`O=C(NCc1[nH]nc(-c2ccc(F)cc2)c1-c1ccncc1)Nc1ccc(F)cc1` [Example B-0174]: the inhibition at 10 µM was found to be 54%. Take `CC(C)c1ccc(NC(=O)NCc2[nH]nc(-c3ccc(F)cc3)c2-c2ccncc2)cc1` [Example B-0178]: the inhibition at 10 µM is 12%.

For the molecule `CCCCN(CCCC)c1cccc2c(S(=O)(=O)NCc3[nH]nc(-c4ccc(F)cc4)c3-c3ccncc3)cccc12` [Example B-0139], the inhibition at 10 µM was 54%. On the same count and under the same terms, then `CCOC(=O)C(C)NC(=O)NCc1[nH]nc(-c2ccc(F)cc2)c1-c1ccncc1` (stereo not shown) [Example B-0165], with 70%; and `O=C(NCc1[nH]nc(-c2ccc(F)cc2)c1-c1ccncc1)Nc1ccc(-c2ccccc2)cc1` [Example B-0180], with 34%. Still for that read-out and setting: the value for `O=C(NCc1[nH]nc(-c2ccc(F)cc2)c1-c1ccncc1)Nc1cccc(Cl)c1Cl` [Example B-0192] was 12%.

Staying with this assay, now noted: p38α in vitro, PHAS-I assay procedure; read-out: p38^1 IC50.
Regarding `OCCn1cc(-c2ccnc(NCc3ccc(F)cc3)c2)c(-c2ccc(F)cc2)n1` [Example A-289, 3-(4-fluorophenyl)-4-[2-[[(4-fluorophenyl)methyl]amino]-4-pyridinyl]-1H-pyrazole-1-ethanol], the IC50 – broadly, the point on the concentration scale where inhibition reaches its midpoint – was less than 100 nM. Regarding `Fc1ccc(CNc2cc(-c3cn(CCN4CCOCC4)nc3-c3ccc(F)cc3)ccn2)cc1` [Example A-285, N-[(4-fluorophenyl)methyl]-4-[3-(4-fluorophenyl)-1-[2-(4-morpholinyl)ethyl]-1H-pyrazol-4-yl]-2-pyridinamine], the IC50 is less than 100 nM.

Staying with this assay, now noted: read-out: P38 alpha kinase IC50.
As for `Cc1ccc(C(=O)NC(C)c2[nH]nc(-c3ccc(F)cc3)c2-c2ccncc2)cc1` (stereo not shown) [Example B-0551], the IC50 amounted to 1080 nM. Same read-out and setting: then `C[C@@H](NC(=O)NCCc1ccccc1)c1[nH]nc(-c2ccc(F)cc2)c1-c1ccncc1` [Example B-0416], with 320 nM. Turning to `CC1(C)C2CCC1(CS(=O)(=O)NCc1[nH]nc(-c3ccc(F)cc3)c1-c1ccncc1)C(=O)C2` (stereo not shown) [Example B-0226], the IC50 worked out at 74 nM.

Take `NC(=O)NC(Cc1ccccc1)c1[nH]nc(-c2ccc(F)cc2)c1-c1ccncc1` (stereo not shown) [Example B-0769]: the IC50 came out at 12700 nM. Still for that read-out and setting: the value for `CC(=O)Nc1nc(C)c(S(=O)(=O)N[C@H](C)c2[nH]nc(-c3ccc(F)cc3)c2-c2ccncc2)s1` [Example B-0430] was 290 nM; that for `CCNC(=O)N[C@H](C)c1[nH]nc(-c2ccc(F)cc2)c1-c1ccncc1` [Example B-0421] was 460 nM. For `COc1ccc(Cl)cc1S(=O)(=O)NC(C)c1[nH]nc(-c2ccc(F)cc2)c1-c1ccncc1` (stereo not shown) [Example B-0655], the IC50 was 1250 nM.

On to `CCc1ccc(S(=O)(=O)N[C@H](C)c2[nH]nc(-c3ccc(F)cc3)c2-c2ccncc2)cc1` [Example B-0460], for which the IC50 was determined as 61 nM. Same read-out and setting: then `C[C@@H](NC(=O)Nc1ccccc1F)c1[nH]nc(-c2ccc(F)cc2)c1-c1ccncc1` [Example B-0410], with 380 nM; and `CC1(C)C2CCC1(CS(=O)(=O)NCc1[nH]nc(-c3ccc(F)cc3)c1-c1ccncc1)C(=O)C2` (stereo not shown) [Example B-0227], with 45 nM. In the case of `C[C@@H](NS(=O)(=O)c1cccs1)c1[nH]nc(-c2ccc(F)cc2)c1-c1ccncc1` [Example B-0398], the IC50 was 54 nM. In the case of `CCS(=O)(=O)NC(Cc1ccccc1)c1[nH]nc(-c2ccc(F)cc2)c1-c1ccncc1` (stereo not shown) [Example B-0717], the IC50 came out at 4300 nM. On the same count and under the same terms, then `Cc1cccc(Cl)c1S(=O)(=O)NCc1[nH]nc(-c2ccc(F)cc2)c1-c1ccncc1` [Example B-0243], with 39 nM; and `O=C(c1ccccc1Br)N1CCC(c2[nH]nc(-c3ccc(F)cc3)c2-c2ccncc2)CC1` [Example B-1398], with 920 nM.

Take `CC(=O)N[C@H](C)c1[nH]nc(-c2ccc(F)cc2)c1-c1ccncc1` [Example B-0359]: the IC50 worked out at 450 nM. Regarding `CC(Oc1ccccc1)C(=O)N[C@H](C)c1[nH]nc(-c2ccc(F)cc2)c1-c1ccncc1` (stereo partly shown) [Example B-0381], the IC50 was determined as 220 nM. The same measure, in the same setting: the value for `CC(NS(=O)(=O)c1ccccc1C#N)c1[nH]nc(-c2ccc(F)cc2)c1-c1ccncc1` (stereo not shown) [Example B-0627] was 250 nM; that for `CCCS(=O)(=O)NC(Cc1ccccc1)c1[nH]nc(-c2ccc(F)cc2)c1-c1ccncc1` (stereo not shown) [Example B-0715] was 3200 nM; that for `C[C@@H](NC(=O)c1ccc(Cl)cc1Cl)c1[nH]nc(-c2ccc(F)cc2)c1-c1ccncc1` [Example B-0516] was 370 nM. Turning to `Cc1cc(C)c(C(=O)NCc2[nH]nc(-c3ccc(F)cc3)c2-c2ccncc2)c(C)c1` [Example B-0280], the IC50 came to 860 nM. On the same count and under the same terms, then `O=C(NCc1[nH]nc(-c2ccc(F)cc2)c1-c1ccncc1)c1ccc(C(F)(F)F)cc1F` [Example B-0283], with 6660 nM; and `Cc1ccc(S(C)(=O)=O)cc1S(=O)(=O)N[C@H](C)c1[nH]nc(-c2ccc(F)cc2)c1-c1ccncc1` [Example B-0491], with 430 nM.

In the case of `C[C@@H](NC(=O)c1ccc(F)c(F)c1)c1[nH]nc(-c2ccc(F)cc2)c1-c1ccncc1` [Example B-0501], the IC50 was determined as 49 nM. Same read-out and setting: then `Cc1ccc(C)c(S(=O)(=O)NCc2[nH]nc(-c3ccc(F)cc3)c2-c2ccncc2)c1` [Example B-0244], with 20 nM. Turning to `C[C@@H](NC(=O)c1ccc(F)c(C(F)(F)F)c1)c1[nH]nc(-c2ccc(F)cc2)c1-c1ccncc1` [Example B-0512], the IC50 is 1000 nM. Still for that read-out and setting: then `CC(=O)NC(C)c1[nH]nc(-c2ccc(F)cc2)c1-c1ccncc1` (stereo not shown) [Example B-0536], with 460 nM. For `COc1ccc(NC(=O)N[C@H](C)c2[nH]nc(-c3ccc(F)cc3)c2-c2ccncc2)cc1` [Example B-0419], the IC50 is 850 nM.
